# Experiments:
# [1] = tested on: RS4;11-BCL-2 G101V cells; test: Cell proliferation assay (MTS), RS4;11-BCL-2 G101V engineered cells; assay type: cell-based; details: Homo sapiens, 120 h, read-out: RS4, 11 BCL2-G101V IC50
# How it was run: (§1)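 Cells were plated, allowed to settle 4 h (G101V, F104L) or 24 h (D103E, D103Y), and treated with serially diluted compound (10000 down to 1.5 nM). After 120 h or 72 h respectively at 37 °C, MTS was added for 2 h and absorbance at 490 nm gave IC50 values.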
# [2] = Pharmacokinetics assay in rats; assay type: in vivo; details: rat, male Sprague-Dawley rats, po, 5 mg/kg, plasma; for Cmax: read-out: Cmax/C0
# Experimental: The purpose of this study was to determine the pharmacokinetics of Examples in male Sprague-Dawley rats (Supplied by Beijing Vital River Laboratory Animal Technology Co., Ltd.) following a single intravenous bolus injection at 1 mg/kg and oral gavage (PO) administration at 5 mg/kg.
# Animals in Group 1 were administered with Examples by single intravenous bolus injection at 1 mg/kg, which was formulated in 10% DMSO (Sigma, Batch #LPCOS181): 60% PEG400 (Sigma, Batch #MKCH6281): 30% water, pH 5-6 at 1 mg/mL as a solution. Animals in Group 2 were administered with Examples by single oral gavage (PO) administration at 5 mg/kg, which was formulated in 10% DMSO (Sigma, Batch #BCCD6641): 60% PEG400 (Sigma, Batch #MKCL4921): 30% water at 1 mg/mL as a solution. Blood samples were collected at 0.083, 0.25, 0.5, 1, 2, 4, 8, 12 and 24 hours post-dose. Concentrations of Examples in plasma were determined by LC/MS/MS (LC: Waters UPLC; MS: Triple Quad 6500 plus).
# [3] = tested on: Toledo cells; test: Cell proliferation assay (MTS), Toledo cells; assay type: cell-based; details: Homo sapiens, 72 h
# How it was run: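 Toledo cells (RPMI-1640, 10% FBS) seeded at 30000 cells/well, rested 4 h, then exposed 72 h at 37 °C, 5% CO2 to compound at nine final concentrations, 1.5–10000 nM. Viability by MTS (2 h), absorbance at 490 nm. IC50 from the concentration-response.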
# [4] = tested on: RS4;11-BCL-2 F104L cells; test: Cell proliferation assay (MTS), RS4;11-BCL-2 F104L engineered cells; assay type: cell-based; details: Homo sapiens, 120 h, read-out: RS4, 11 BCL2-F104L IC50
# How it was run: as §1
# [5] = tested on: RS4;11-BCL-2 D103E cells; test: Cell proliferation assay (MTS), RS4;11-BCL-2 D103E engineered cells; assay type: cell-based; details: Homo sapiens, 72 h, read-out: RS4, 11 BCL2-D103E IC50
# How it was run: as §1
# [6] = tested on: RS4;11-BCL-2 D103Y cells; test: Cell proliferation assay (MTS), RS4;11-BCL-2 D103Y engineered cells; assay type: cell-based; details: Homo sapiens, 72 h, read-out: RS4, 11 BCL2-D103Y IC50
# Excerpt: MTS testing kit was purchased from Promega (Madison, WI, USA). The RPMI-1640, Fetal bovine serum and Penicillin-Streptomycin were purchased from BI (Biological Industries, Beit Haemek, Israel). Puromycin was purchased from Beyotime (shanghai, China). Dimethyl sulfoxide (DMSO) was purchased from Sigma (St. Louis., MO, USA). RS4;11-BCL-2 G101V (Cobioer Lot. #: CBD2021063013P4), RS4;11-BCL-2 D103E (Cobioer Lot. #: CBD2021063013P4), RS4;11-BCL-2 D103Y (Cobioer Lot. #: CBD2022012101P4) and RS4;11-BCL-2 F104L (Cobioer Lot. #: CBD2021063014P4) cells were cultured in RPMI1640 supplemented with 1 ug/mL puromycin, 100 U/mL Penicillin-Streptomycin and 10% FBS.
# To investigate whether a compound is able to inhibit the activity of BCL-2 mutation in cells, a mechanism-based assay using engineered cell lines stably overexpressing BCL-2 mutation (RS4;11-BCL-2 G101V, RS4;11-BCL-2 D103E, RS4;11-BCL-2 D103Y, and RS4;11-BCL-2 F104L) was developed. In this assay, the inhibition of BCL-2 mutation was reflected by the inhibition of cell proliferation of engineered RS4;11 cells. Cells were plated into 96-well plates at optimized cell density (RS4;11-BCL-2 G101V: 5000 cells/well; RS4;11-BCL-2 D103E: 7500 cells/well; RS4;11-BCL-2 D103Y: 7500 cells/well; RS4;11-BCL-2 F104L: 5000 cells/well). Plates were incubated at 37° C., with 5% CO2 for 4 h (RS4;11-BCL-2 G101V, RS4;11-BCL-2 F104L) and 24 h (RS4;11-BCL-2 D103E, RS4;11-BCL-2 D103Y), respectively. Compounds were serially diluted and added to the plates with the final concentrations of 10000, 3333.3, 1111.1, 370.4, 123.5, 41.2, 13.7, 4.6 and 1.5 nM. Plates were incubated at 37° C., with 5% CO2 for 120 h (RS4; 11-BCL-2 G101V, RS4; 11-BCL-2 F104L) and 72 h (RS4;11-BCL-2 D103E, RS4;11-BCL-2 D103Y), respectively. 20 μl MTS was added into each well and the plates were incubated at 37° C., with 5% CO2 exactly for 2 h. The absorbance was measured by a microplate reader at 490 nm. IC50 values were calculated using GraphPad Prism 8.0 software.
IC50 [6],Compound,IC50 [1],AUC(0-t) [2],half-life [2],Cmax [2],IC50 [3],IC50 [4],IC50 [5]
,"COc1cc(CN2CCN(C3CC4(CCN(c5ccc(C(=O)NS(=O)(=O)c6cnc(NC[C@H]7CC[C@](C)(O)CC7)c([N+](=O)[O-])c6)c(Oc6cc7c(F)c[nH]c7nc6OC)c5)CC4)C3)[C@H](c3ccccc3C(C)C)C2)ccn1 [Example 242, 2-((3-fluoro-6-methoxy-1H-pyrrolo[2,3-b]pyridin-5-yl)oxy)-N-((6-((((1r,4r)-4-hydroxy-4-methylcyclohexyl)methyl)amino)-5-nitropyridin-3-yl)sulfonyl)-4-(2-((R)-2-(2-isopropylphenyl)-4-((2-methoxypyridin-4-yl)methyl)piperazin-1-yl)-7-azaspiro[3.5]nonan-7-yl)benzamide]",1 nM,2760 ng·h/mL,7.02 h,272 ng/mL,1 nM,1 nM,1 nM
8 nM,"COc1nc2[nH]cc(F)c2cc1Oc1cc(N2CCC3(CC2)CC(N2CCN(Cc4ccnc5c4NCC(C)O5)C[C@H]2c2ccccc2C(C)C)C3)ccc1C(=O)NS(=O)(=O)c1cnc(NC[C@H]2CC[C@](C)(O)CC2)c([N+](=O)[O-])c1 (stereo partly drawn) [Example 195, 2-((3-fluoro-6-methoxy-1H-pyrrolo[2,3-b]pyridin-5-yl)oxy)-N-((6-((((1r,4r)-4-hydroxy-4-methylcyclohexyl)methyl)amino)-5-nitropyridin-3-yl)sulfonyl)-4-(2-((2R)-2-(2-isopropylphenyl)-4-((3-methyl-2,3-dihydro-1H-pyrido[2,3-b][1,4]oxazin-8-yl)methyl)piperazin-1-yl)-7-azaspiro[3.5]nonan-7-yl)benzamide]",,,,,,,
,"COc1nc2[nH]cc(F)c2cc1Oc1cc(N2CCC3(CC2)CC(N2CCN(Cc4ccc(F)cc4)C[C@H]2c2ccccc2C(C)C)C3)ccc1C(=O)NS(=O)(=O)c1cnc(NC[C@H]2CC[C@](C)(O)CC2)c([N+](=O)[O-])c1 [Example 233, 2-((3-fluoro-6-methoxy-1H-pyrrolo[2,3-b]pyridin-5-yl)oxy)-4-(2-((R)-4-(4-fluorobenzyl)-2-(2-isopropylphenyl)piperazin-1-yl)-7-azaspiro[3.5]nonan-7-yl)-N-((6-((((1r,4r)-4-hydroxy-4-methylcyclohexyl)methyl)amino)-5-nitropyridin-3-yl)sulfonyl)benzamide]",1 nM,3920 ng·h/mL,7.36 h,439 ng/mL,1 nM,1 nM,
,"COc1ccc(CN2CCN(C3CC4(CCN(c5ccc(C(=O)NS(=O)(=O)c6cnc(NC[C@H]7CC[C@](C)(O)CC7)c([N+](=O)[O-])c6)c(Oc6cc7c(F)c[nH]c7nc6OC)c5)CC4)C3)[C@H](c3ccccc3C(C)C)C2)cc1 [Example 1, 2-((3 fluoro-6-methoxy-1H pyrrolo[2,3-b]pyridin-5 yl)oxy)-N-((6-((((1r, 4r)-4-hydroxy-4-methylcyclohexyl)methyl)amino)-5-nitropyridin-3-yl)sulfonyl)-4-(2-((R)-2-(2-isopropylphenyl)-4-(4-methoxybenzyl)piperazin-1-yl)-7-azaspiro[3.5]nonan-7-yl)benzamide]",1 nM,3030 ng·h/mL,9.02 h,227 ng/mL,1 nM,1 nM,2 nM
,"COc1nc2[nH]cc(F)c2cc1Oc1cc(N2CCC3(CC2)CC(N2CCN(Cc4ccc(Cl)cc4)C[C@H]2c2ccccc2C(C)C)C3)ccc1C(=O)NS(=O)(=O)c1cnc(NC[C@H]2CC[C@](C)(O)CC2)c([N+](=O)[O-])c1 [Example 230, 4-(2-((R)-4-(4-chlorobenzyl)-2-(2-isopropylphenyl)piperazin-1-yl)-7-azaspiro[3.5]nonan-7-yl)-2-((3-fluoro-6-methoxy-1H-pyrrolo[2,3-b]pyridin-5-yl)oxy)-N-((6-((((1r,4r)-4-hydroxy-4-methylcyclohexyl)methyl)amino)-5-nitropyridin-3-yl)sulfonyl)benzamide]",1 nM,3750 ng·h/mL,10.2 h,329 ng/mL,1 nM,1 nM,
,"COc1nc2[nH]cc(F)c2cc1Oc1cc(N2CCC3(CC2)CC(N2CCN(Cc4ccc(C5CC5)c(OC)n4)C[C@H]2c2ccccc2C(C)C)C3)ccc1C(=O)NS(=O)(=O)c1cnc(NC[C@H]2CC[C@](C)(O)CC2)c([N+](=O)[O-])c1 [Example 289, 4-(2-((R)-4-((5-cyclopropyl-6-methoxypyridin-2-yl)methyl)-2-(2-isopropylphenyl)piperazin-1-yl)-7-azaspiro[3.5]nonan-7-yl)-2-((3-fluoro-6-methoxy-1H-pyrrolo[2,3-b]pyridin-5-yl)oxy)-N-((6-((((1r,4r)-4-hydroxy-4-methylcyclohexyl)methyl)amino)-5-nitropyridin-3-yl)sulfonyl)benzamide]",2 nM,3450 ng·h/mL,8.1 h,357 ng/mL,1 nM,1 nM,1 nM
,"COc1nc2[nH]cc(F)c2cc1Oc1cc(N2CCC3(CC2)CC(N2CCN(Cc4ccc(OC)c5oc(C)cc45)C[C@H]2c2ccccc2C(C)C)C3)ccc1C(=O)NS(=O)(=O)c1cnc(NC[C@H]2CC[C@](C)(O)CC2)c([N+](=O)[O-])c1 [Example 13, 2-((3-fluoro-6-methoxy-1H-pyrrolo[2,3-b]pyridin-5-yl)oxy)-N-((6-((((1r,4r)-4-hydroxy-4-methylcyclohexyl)methyl)amino)-5-nitropyridin-3-yl)sulfonyl)-4-(2-((R)-2-(2-isopropylphenyl)-4-((7-methoxy-2-methylbenzofuran-4-yl)methyl)piperazin-1-yl)-7-azaspiro[3.5]nonan-7-yl)benzamide]",1 nM,1890 ng·h/mL,11.3 h,198 ng/mL,1 nM,1 nM,1 nM
,"COc1cc(CN2CCN(C3CC4(CCN(c5ccc(C(=O)NS(=O)(=O)c6cnc(NC[C@H]7CC[C@](C)(O)CC7)c([N+](=O)[O-])c6)c(Oc6cc7c(F)c[nH]c7nc6OC)c5)CC4)C3)[C@H](c3ccccc3C(C)C)C2)ccc1C1CC1 [Example 5, 4-(2-((R)-4-(4-cyclopropyl-3-methoxybenzyl)-2-(2-isopropylphenyl)piperazin-1-yl)-7-azaspiro[3.5]nonan-7-yl)-2-((3-fluoro-6-methoxy-1H-pyrrolo[2,3-b]pyridin-5-yl)oxy)-N-((6-((((1r,4r)-4-hydroxy-4-methylcyclohexyl)methyl)amino)-5-nitropyridin-3-yl)sulfonyl)benzamide]",1 nM,2260 ng·h/mL,24.4 h,37.1 ng/mL,1 nM,1 nM,
